For this experiment, the target named is T1, CCR2 (Homo sapiens, UniProt P41597).
T1 construct: host or cells: THP-1 (human monocytic cell line), whole cells
T1 sequence (P41597 whole entry): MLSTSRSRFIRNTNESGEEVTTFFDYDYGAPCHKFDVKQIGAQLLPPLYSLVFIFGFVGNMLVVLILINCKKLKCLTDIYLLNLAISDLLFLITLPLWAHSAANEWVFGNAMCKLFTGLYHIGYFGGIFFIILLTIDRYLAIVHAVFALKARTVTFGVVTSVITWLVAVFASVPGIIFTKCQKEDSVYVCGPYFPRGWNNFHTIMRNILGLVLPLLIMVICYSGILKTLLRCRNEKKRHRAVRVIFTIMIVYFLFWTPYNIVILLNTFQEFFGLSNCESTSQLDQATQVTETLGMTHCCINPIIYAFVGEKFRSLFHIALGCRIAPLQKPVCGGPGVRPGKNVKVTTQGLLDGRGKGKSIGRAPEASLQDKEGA
Kind of experiment: MCP-1 Receptor Binding Assay in THP-1 Cells. Particulars: 0.5 nM 125I labeled MCP-1, 2 hours at 30° C., read-out: Inhibition of MCP-1 Binding IC50, CCR2 Binding. As for the experimental part: Compounds of the invention were subjected to various representative biological tests. […] MCP-1 Receptor Binding Assay in THP-1 Cells
Human monocytic cell line THP-1 cells were obtained from American Type Culture Collection (Manassas, Va., USA). […] The cell density was maintained […].
1 μM cold MCP-1 was used for nonspecific binding.
Usually IC50 stands for the point on the concentration scale where inhibition reaches its midpoint. In the case of `Cc1ccc(C2(O)CCC(N3CC(NC(=O)CNC(=O)c4cc(C(F)(F)F)ccc4Cl)C3)CC2)cn1` (single isomer, unassigned) [Example 70a, 2-Chloro-N-({1-[4-hydroxy-4-(6-methyl-pyridin-3-yl)-cyclohexyl]-azetidin-3-ylcarbamoyl}-methyl)-5-trifluoromethyl-benzamide], the IC50 was 590 nM. For the compound `COc1ccc(C2(O)CCC(N3CC(NC(=O)CNC(=O)c4ccc(Cl)c(Cl)c4)C3)CC2)cn1` (stereo not drawn) [Example 18, 3,4-Dichloro-N-({1-[4-hydroxy-4-(6-methoxy-pyridin-3-yl)-cyclohexyl]-azetidin-3-ylcarbamoyl}-methyl)-benzamide], the IC50 is 120 nM.

On to `COc1ccc(C2(O)CCC(N3CC(NC(=O)CNC(=O)c4cccc(Cl)c4)C3)CC2)cn1` (stereo not drawn) [Example 24, 3-Chloro-N-({1-[4-hydroxy-4-(6-methoxy-pyridin-3-yl)-cyclohexyl]-azetidin-3-ylcarbamoyl}-methyl)-benzamide], for which the IC50 worked out at 1600 nM.

With `Nc1ncc(C2(O)CCC(N3CC(NC(=O)CNC(=O)c4cccc(C(F)(F)F)c4)C3)CC2)s1` (stereo not drawn) [Example 49, N-({1-[4-(2-Amino-thiazol-5-yl)-4-hydroxy-cyclohexyl]-azetidin-3-ylcarbamoyl}-methyl)-3-trifluoromethyl-benzamide], the IC50 was determined as 260 nM. The figure for `N#CNc1ncc(C2(O)CCC(N3CC(NC(=O)CNC(=O)c4cccc(C(F)(F)F)c4)C3)CC2)s1` (stereo not drawn) [Example 55, N-({1-[4-(2-Cyanoamino-thiazol-5-yl)-4-hydroxy-cyclohexyl]-azetidin-3-ylcarbamoyl}-methyl)-3-trifluoromethyl-benzamide] is 1200 nM; for `O=C(CNC(=O)c1cc(C(F)(F)F)ccc1C(F)(F)F)NC1CN(C2CCC(O)(c3nccs3)CC2)C1` (stereo not drawn) [Example 68, N-{[1-(4-Hydroxy-4-thiazol-2-yl-cyclohexyl)-azetidin-3-ylcarbamoyl]-methyl}-2,5-bis-trifluoromethyl-benzamide] it is 500 nM; for `Cc1ncc(C2(O)CCC(N3CC(NC(=O)CNC(=O)c4cccc(C(F)(F)F)c4)C3)CC2)s1` (single isomer, unassigned) [Example 41a, N-({1-[4-Hydroxy-4-(2-methyl-thiazol-5-yl)-cyclohexyl]-azetidin-3-ylcarbamoyl}-methyl)-3-trifluoromethyl-benzamide] it is 200 nM. Then `O=C(CNC(=O)c1cccc(C(F)(F)F)c1)NC1CN(C2CCC(O)(c3ncc(CO)s3)CC2)C1` (single isomer, unassigned) [Example 35a, N-({1-[4-Hydroxy-4-(5-hydroxymethyl-thiazol-2-yl)-cyclohexyl]-azetidin-3-ylcarbamoyl}-methyl)-3-trifluoromethyl-benzamide], with 240 nM; and `O=C(CNC(=O)c1cccc(C(F)(F)F)c1)NC1CN(C2CCC(O)(c3ccc(Br)cn3)CC2)C1` (single isomer, unassigned) [Example 25a, N-({1-[4-(5-Bromo-pyridin-2-yl)-4-hydroxy-cyclohexyl]-azetidin-3-ylcarbamoyl}-methyl)-3-trifluoromethyl-benzamide], with 3100 nM; and `COc1ncc(C2(O)CCC(N3CC(NC(=O)CNC(=O)c4cccc(C(F)(F)F)c4)C3)CC2)cn1` (single isomer, unassigned) [Example 28a, N-({1-[4-Hydroxy-4-(2-methoxy-pyrimidin-5-yl)-cyclohexyl]-azetidin-3-ylcarbamoyl}-methyl)-3-trifluoromethyl-benzamide], with 1100 nM. As to `Cc1csc(C2(O)CCC(N3CC(NC(=O)CNC(=O)c4cccc(C(F)(F)F)c4)C3)CC2)n1` (single isomer, unassigned) [Example 38a, N-({1-[4-Hydroxy-4-(4-methyl-thiazol-2-yl)-cyclohexyl]-azetidin-3-ylcarbamoyl}-methyl)-3-trifluoromethyl-benzamide], the IC50 came out at 370 nM.

Take `Cc1ccc(C2(O)CCC(N3CC(NC(=O)CNC(=O)c4cc(F)cc(C(F)(F)F)c4)C3)CC2)cn1` (single isomer, unassigned) [Example 64a, 3-Fluoro-N-({1-[4-hydroxy-4-(6-methyl-pyridin-3-yl)-cyclohexyl]-azetidin-3-ylcarbamoyl}-methyl)-5-trifluoromethyl-benzamide]: the IC50 was 37 nM. On to `COc1ccc(C2(O)CCC(N3CC(NC(=O)CNC(=O)c4cccc(C)c4)C3)CC2)cn1` (stereo not drawn) [Example 22, N-({1-[4-Hydroxy-4-(6-methoxy-pyridin-3-yl)-cyclohexyl]-azetidin-3-ylcarbamoyl}-methyl)-3-methyl-benzamide], for which the IC50 is 2300 nM.

As for `CN(C)Cc1ncc(C2(O)CCC(N3CC(NC(=O)CNC(=O)c4cccc(C(F)(F)F)c4)C3)CC2)s1` (stereo not drawn) [Example 56, N-({1-[4-(2-Dimethylaminomethyl-thiazol-5-yl)-4-hydroxy-cyclohexyl]-azetidin-3-ylcarbamoyl}-methyl)-3-trifluoromethyl-benzamide], the half-maximal inhibitory concentration (IC50) was 310 nM. Then `CN(C)c1ncc(C2(O)CCC(N3CC(NC(=O)CNC(=O)c4cccc(C(F)(F)F)c4)C3)CC2)s1` (stereo not drawn) [Example 50, N-({1-[4-(2-Dimethylamino-thiazol-5-yl)-4-hydroxy-cyclohexyl]-azetidin-3-ylcarbamoyl}-methyl)-3-trifluoromethyl-benzamide], with 560 nM. Consider `COc1ncc(C2(O)CCC(N3CC(NC(=O)CNC(=O)c4cccc(C(F)(F)F)c4)C3)CC2)s1` (stereo not drawn) [Example 52, N-({1-[4-Hydroxy-4-(2-methoxy-thiazol-5-yl)-cyclohexyl]-azetidin-3-ylcarbamoyl}-methyl)-3-trifluoromethyl-benzamide], for which the IC50 turned out to be 73 nM. Regarding `C#Cc1ncc(C2(O)CCC(N3CC(NC(=O)CNC(=O)c4cccc(C(F)(F)F)c4)C3)CC2)s1` (single isomer, unassigned) [Example 44a, N-({1-[4-(2-Ethynyl-thiazol-5-yl)-4-hydroxy-cyclohexyl]-azetidin-3-ylcarbamoyl}-methyl)-3-trifluoromethyl-benzamide], the 50% inhibitory concentration (IC50) was found to be 340 nM. Consider `O=C(CNC(=O)c1cc(F)cc(C(F)(F)F)c1)NC1CN(C2CCC(O)(c3cncs3)CC2)C1` (stereo not drawn) [Example 65, 3-Fluoro-N-{[1-(4-hydroxy-4-thiazol-5-yl-cyclohexyl)-azetidin-3-ylcarbamoyl]-methyl}-5-trifluoromethyl-benzamide], for which the IC50 is 70 nM. With `O=C(CNC(=O)c1cc(C(F)(F)F)cc(C(F)(F)F)c1)NC1CN(C2CCC(O)(c3nccs3)CC2)C1` (single isomer, unassigned) [Example 67a, N-{[1-(4-Hydroxy-4-thiazol-2-yl-cyclohexyl)-azetidin-3-ylcarbamoyl]-methyl}-3,5-bis-trifluoromethyl-benzamide], the IC50 was 370 nM. `COc1ccc(C2(O)CCC(N3CC(NC(=O)CNC(=O)c4cc(F)cc(F)c4)C3)CC2)cn1` (stereo not drawn) [Example 19, 3,5-Difluoro-N-({1-[4-hydroxy-4-(6-methoxy-pyridin-3-yl)-cyclohexyl]-azetidin-3-ylcarbamoyl}-methyl)-benzamide]: the IC50 came out at 4300 nM.

As for `COc1ccc(C2(O)CCC(N3CC(NC(=O)CNC(=O)c4cc(F)c(F)c(F)c4)C3)CC2)cn1` (stereo not drawn) [Example 17, 3,4,5-Trifluoro-N-({1-[4-hydroxy-4-(6-methoxy-pyridin-3-yl)-cyclohexyl]-azetidin-3-ylcarbamoyl}-methyl)-benzamide], the IC50 was 6400 nM.

The values are drawn from US8450304B2, “4-azetidinyl-1-heteroaryl-cyclohexanol antagonists of CCR2” (Janssen Pharmaceutica N.V., priority 2008, dated 2013).
